Test results published in patent US20230157994A1 (priority 2020, published 2023).
“And” between values parts separate entries of the source, which are not always exact repeats. Equal values may be shown once. Read-outs that look alike come from different tables or passages of the source.

Experiments:
ARDS patients = settings: at days 28; cited from earlier work
severe COVID-19 patients = settings: estimate for sample size
Description: Sample size is based on the following assumptions: • 1. Current estimate of the proportion of patients in ICU with critical stage COVID-19 and requiring mechanical ventilation (50% as per Bichat and Bordeaux CHUs), • 2. […] A two-sided analysis, with α=0.05.

[1] = system: COVID-19-related ARDS patients; settings: hypothesis; in combination with best available treatment
Protocol: Ventilator-free days (VFDs) at 28 days are one of several organ failure-free outcome measures to quantify the efficacy of therapies and interventions. VFDs are typically defined as follows: • a. VFDs=0 if subject dies within 28 days of mechanical ventilation. • b. VFDs=28−x if successfully liberated from ventilation x days after initiation. • c. VFDs=0 if the subject is mechanically ventilated for >28 days.
4 groups of patients (placebo, pleri 10, pleri 20, pleri 40 μg/kg bid) will be planned.

[2] = system: neutrophils (DAPI-CD16+, DAPI-CD16+CXCR4-, DAPI-CD16+CXCR4+); settings: for % of neutrophils' migration decrease with plerixafor vs vehicle in response to COVID-19 serum: DAPI-CD16+CXCR4+ cells
Protocol: Neutrophils were isolated from 6 patients of the COBRA cohort (COPD and asthma patient cohort). […] Cells were next plated in the upper compartment of a modified Boyden chamber for migration assay in 0.2 mL HBSS, containing 0.5% HSA medium. HBSS, 0.5% HSA or HBSS, 0.5% HSA+sera (10% diluted) from severe COVID-19 patients were added to the bottom compartment of each well. […] Cell identities and counts were analysed by FACS method.
Neutrophils are isolated according to the method described by Hard, et al., (Infiltrated neutrophils acquire novel chemokine receptor expression and chemokine responsiveness in chronic inflammatory lung diseases. J. Immunol. Baltim. Md 1950. 181:8053-8067). Neutrophils were freshly isolated from blood of COPD patients over isotonic Percoll density gradient. The neutrophils were recovered, washed twice with HBSS containing 20 mM HEPES and 0.1% (w/v) BSA and resuspended in HBSS, 20 mM HEPES, and 0.1% (w/v) BSA at a cell concentration of 5×10^5 in 0.2 mL.
Neutrophil migration was assessed using a Boyden chamber assay, using transwell inserts (pore size 8 um). A total of 5x 10^5 neutrophils cells in 0.2 mL HBSS, containing 0.5% HSA were added to the upper compartment of each well. […] HBSS, 0.5% HSA and Sera (10% diluted) from severe COVID-19 patients was added to the bottom compartment of each well.
After neutrophils' recovery from lower chamber, FACS tubes were centrifuged 5 min, 4° C. at 500 g. Fixation and permeabilization of cells were as follow: 0.3 mL of Cytofix/Cytoperm were added for 15 min (tube are protected from light). Next, 400 μL of permeabilization buffer was added and cells were processed for centrifugation for 5 min, 4° C., 400 g. Supernatant was discarded, and cells were processed for antibody staining. Cells were incubated 40 min at 4° C. with anti-CD16 to account for all neutrophils, anti-CXCR4 to specifically account for CXCR4 expressing neutrophils. Next, 400 μL of permeabilization buffer was added, and cells were centrifuged 5 min at 4° C., 400 g. After supernatant was discarded, cells were incubated with appropriate secondary antibody for 40 min at 4° C. Finally, cells were incubated with DAPI at 4° C. After DAPI incubation (to exclude dying cells from FACS counts), 400 μL of PBS 1× were added and cells were centrifuged for 5 min at 4° C., 400 g. Cells were resuspended in 300 μL of PBS 1×. To obtain absolute values of migratory cells, flow cytometric counts for each condition were obtained during a constant predetermined time period (1 min).
Each condition treatment was run in duplicate.

Citrullinated histone H3 = settings: for effect on level of citrullinated histone H3 / NETosis: RNA virus infected mice, 3 mg/kg/day, versus infected vehicle group
SARS-CoV-2 = settings: for body weight loss kinetic: versus vehicle mice

In the case of “Tocilizumab: an anti-IL6 human monoclonal antibody marketed by Genentech under the tradename Actemra for treating rheumatoid arthritis”, the “VFDs (ventilator-free days)” value (ARDS patients) is listed as 14.86+/−5.36.
For c1cc(CN2CCCNCCNCCCNCC2)ccc1CN1CCCNCCNCCCNCC1 [plerixafor], the “decrease of proportion of invasive mechanical ventilation versus placebo” value (severe COVID-19 patients) was 46%, the “proportion of invasive mechanical ventilation in patients with severe COVID-19” value (severe COVID-19 patients; reduced from 50%, 30 μg/kg/hour continuous IV 7 days) was 27% and the “increase of VFDs (ventilator-free days at 28 days)” value [1] was 2 days. The “decrease of CXCR4+ neutrophils migration (mean of 6 patients)” value [2] was 75.8%±5.9%, the “migration of CXCR4 negative neutrophils (DAPI-CD16+CXCR4-)” value [2] was “no significant effect” and the “migration of CXCR4 positive neutrophils (DAPI-CD16+CXCR4+)” value [2] was “strongly and reproducibly decreased”. The “serum-induced recruitment of neutrophils total population (DAPI-CD16+)” value [2] was “did not significantly reduce”, the “% of neutrophils' migration decrease with plerixafor vs vehicle in response to COVID-19 serum” value (“% of neutrophils' migration decrease” below) ([2]; patient Sg3, 25 μg/mL) was 86.6% and the “% of neutrophils' migration decrease” value ([2]; patient Sg87, 25 μg/mL) was 72.9%. The “% of neutrophils' migration decrease” value ([2]; patient Sg88, 25 μg/mL) was 75.5%, the “% of neutrophils' migration decrease” value ([2]; patient Sg89, 25 μg/mL) was 70.0% and the “% of neutrophils' migration decrease” value ([2]; patient Sg92, 25 μg/mL) was 77.6%. The “% of neutrophils' migration decrease” value ([2]; patient Sg95, 25 μg/mL) was 72.4%, the “effect on level of citrullinated histone H3 / NETosis” value (Citrullinated histone H3) was “significantly reduced” and the “effect on level of citrullinated histone H3 / NETosis” value (Citrullinated histone H3; listed as Plerixafor) was “slightly decreased”. The “Mean Citrullinated Histone H3 in plasma” value (Citrullinated histone H3; day 7, RNA virus infected, 3 mg/kg/day SC, infected vehicle 2.124, non infected 0.113) was 1.428±0.799 absorbance at 450 nm and 1.428 absorbance at 450 nm, the “body weight loss kinetic” value (SARS-CoV-2; 10 mg/kg/day) was “reduced the mice body weight loss kinetic” and the “body weight loss kinetic” value (SARS-CoV-2; 10 mg/kg/day, listed as Plerixafor) was “significant reduction of body weight loss kinetic”. The “time of death (euthanasia at body weight loss superior to 20%)” value (SARS-CoV-2; 10 mg/kg/day, versus vehicle, Wilcoxon test p<0.05) was “Significant difference in time of death”, the “average body weight loss” value (SARS-CoV-2; day 5 post infection, 10 mg/kg/day twice daily, vehicle 20.43%±2.88%) was 17.6%±1.28% and the “fraction of treated mice with improved survival” value (SARS-CoV-2; lethal dose of SARS-CoV-2) was 44,44%. It also gave an improvement of survival (SARS-CoV-2; lethal dose of SARS-CoV-2, versus vehicle) of 20%.
